We go through twelve compounds from ChEMBL document CHEMBL1201862, “PubChem BioAssay data set” (2004).

Test systems include MDA-MB-231; KM12; CAKI-1; DU-145; OVCAR-3; UACC-62; NCI-H226; MDA-N; HCT-15; LOX IMVI; U-251; OVCAR-5; RPMI-8226; SF-539; CCRF-CEM; MOLT-4; EKVX; NCI-H522; Hs-578T.
Common to all, as to assay: growth of human tumour cells (NCI), 48 h

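All cell lines were grown in 96-well plates and treated with compound for 48 hours. GI50 marks 50% less growth.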 The source made the active and inactive calls. Rule as the data show it: active = GI50 up to about 1.1 µM and inactive = higher. Bounds are passed on as bounds.

Take `Cc1cc2c(C)cc(=O)[nH]c2cc1N`: the GI50 in the test on MDA-MB-231 is 46.9 µM (inactive); in the test with KM12, > 100 µM (inactive); in the test with CAKI-1 it was > 100 µM (inactive); in the test on DU-145, > 100 µM (inactive); in the test on OVCAR-3, > 100 µM (inactive); with UACC-62, 35.4 µM (inactive). Also, the GI50 in the test with NCI-H226 is > 100 µM (inactive); in the test with MDA-N, > 100 µM (inactive); with HCT-15, greater than 100 µM; in the test with LOX IMVI, > 100 µM (inactive); with U-251 it was 72.9 µM (inactive); in the test with OVCAR-5, > 100 µM (inactive). Further, the GI50 in the test on RPMI-8226 is > 100 µM (inactive); with SF-539 it was > 100 µM (inactive); with CCRF-CEM, > 100 µM (inactive); with MOLT-4 it was > 100 µM (inactive); in the test on EKVX it was 67.6 µM (inactive).
`C=C(C)C#CC(O)(C(=O)OC1CCN(C)CC1)C(C)C` (configuration not stated): the GI50 in the test on MDA-MB-231, in the test on KM12, in the test on CAKI-1, in the test on DU-145, in the test with OVCAR-3 and in the test with NCI-H522 was > 100 µM (inactive) in each case. Moreover, the GI50 is > 100 µM (inactive) in the test on UACC-62; > 100 µM (inactive) with NCI-H226; > 100 µM (inactive) in the test on MDA-N; greater than 100 µM with HCT-15; > 100 µM (inactive) with LOX IMVI; > 100 µM (inactive) with U-251. Also, the GI50 in the test with OVCAR-5, in the test on RPMI-8226, with SF-539, in the test with CCRF-CEM, with MOLT-4 and in the test on EKVX was > 100 µM (inactive) throughout.
As for `Cc1cc(C)nc(NS(=O)(=O)c2ccc(Nc3c4ccccc4nc4c(C(=O)NC(CO)(CO)CO)cccc34)cc2)n1`, the GI50 in the test on MDA-MB-231 is 32.1 µM (inactive); with KM12, 17.9 µM (inactive); in the test on CAKI-1, 89.3 µM (inactive); with DU-145, 55 µM (inactive); in the test with OVCAR-3, 29.3 µM (inactive); in the test with NCI-H522, 13.9 µM (inactive). Besides, the GI50 with UACC-62 is 31.3 µM (inactive); with Hs-578T, 38.4 µM (inactive); in the test with MDA-N, 24.1 µM (inactive); in the test on HCT-15 it was 52 µM; with LOX IMVI, 17.3 µM (inactive); with U-251, 24.8 µM (inactive). The GI50 with OVCAR-5 was 31.5 µM (inactive); with RPMI-8226 it was 22.8 µM (inactive); in the test on CCRF-CEM, 16.1 µM (inactive); in the test on MOLT-4 it was 6.1 µM (inactive); in the test with EKVX, 69 µM (inactive).
On to `C=C(Cl)C(Cl)(CCl)CCC(Br)C(C)(C)Br` (configuration not stated), for which the GI50 in the test on MDA-MB-231, in the test on KM12, in the test with CAKI-1, in the test with DU-145, in the test with OVCAR-3 and with NCI-H522 was > 10 µM (inactive) each time. Besides, the GI50 is > 10 µM (inactive) with UACC-62; > 10 µM (inactive) in the test with NCI-H226; > 10 µM (inactive) in the test on MDA-N; greater than 10 µM with HCT-15; > 10 µM (inactive) in the test with U-251; > 10 µM (inactive) with OVCAR-5. For the same compound, the GI50 with RPMI-8226, in the test with SF-539, in the test on CCRF-CEM, in the test on MOLT-4 and in the test with EKVX was > 10 µM (inactive) each time.
As for `O=C(/C=C/c1ccc2ccccc2c1)NCc1ccc(C(=O)NCCc2ccccc2)cc1`, the GI50 with MDA-MB-231, with KM12, in the test on CAKI-1, with DU-145, with OVCAR-3 and in the test on UACC-62 was > 100 µM (inactive) each time. The GI50 in the test with NCI-H226 was 43.5 µM (inactive); with MDA-N it was > 100 µM (inactive); in the test on HCT-15 it was greater than 100 µM; in the test with LOX IMVI, > 100 µM (inactive); with U-251 it was > 100 µM (inactive); with OVCAR-5, > 100 µM (inactive). In addition, the GI50 with RPMI-8226, with CCRF-CEM and in the test on MOLT-4 was > 100 µM (inactive) throughout.
As to `COC(=O)c1ccc(Oc2nc3ccccc3nc2-c2cccs2)cc1`, the GI50 was 21.3 µM (inactive) in the test with MDA-MB-231; > 100 µM (inactive) in the test with KM12; 43.4 µM (inactive) in the test on CAKI-1; > 100 µM (inactive) in the test on DU-145; > 100 µM (inactive) with OVCAR-3; 76 µM (inactive) in the test with NCI-H522. Moreover, the GI50 in the test with UACC-62 was 40.6 µM (inactive); with Hs-578T, 19.5 µM (inactive); in the test with MDA-N it was > 100 µM (inactive); in the test on HCT-15, 75.5 µM; in the test on LOX IMVI, > 100 µM (inactive); with OVCAR-5, > 100 µM (inactive). The GI50 with SF-539 is 5.71 µM (inactive); in the test with CCRF-CEM it was > 100 µM (inactive); in the test on MOLT-4, > 100 µM (inactive); with EKVX, > 100 µM (inactive).
Consider `CCN(C(=O)N[C@@H](CC(C)C)C(=O)NCC(=O)OC)c1ccccc1`, for which the GI50 with MDA-MB-231, in the test with KM12, with CAKI-1, in the test on DU-145, in the test with OVCAR-3 and in the test with NCI-H522 was > 100 µM (inactive) each time. The GI50 is 30.8 µM (inactive) in the test with UACC-62; > 100 µM (inactive) with NCI-H226; > 100 µM (inactive) in the test with MDA-N; greater than 100 µM with HCT-15; 44.3 µM (inactive) in the test with LOX IMVI; > 100 µM (inactive) in the test with U-251. For the same compound, the GI50 in the test with OVCAR-5 was > 100 µM (inactive); with RPMI-8226 it was > 100 µM (inactive); in the test with SF-539 it was 41 µM (inactive); in the test on CCRF-CEM, > 100 µM (inactive); with MOLT-4 it was > 100 µM (inactive); in the test on EKVX it was > 100 µM (inactive).
For the compound `O=S(=O)(O)c1c(Cl)cc(O)c2ncccc12`, the GI50 in the test on MDA-MB-231, with KM12, in the test with CAKI-1, in the test on DU-145, in the test with OVCAR-3 and in the test with UACC-62 was > 100 µM (inactive) throughout. The GI50 in the test with NCI-H226 was > 100 µM (inactive); in the test with MDA-N it was > 100 µM (inactive); in the test with HCT-15 it was greater than 100 µM; in the test with LOX IMVI, > 100 µM (inactive); with U-251, > 100 µM (inactive); in the test on OVCAR-5, > 100 µM (inactive). Moreover, the GI50 in the test on RPMI-8226, in the test with SF-539, with CCRF-CEM, in the test on MOLT-4 and in the test on EKVX was > 100 µM (inactive) throughout.
For `O=C1C(Cl)C2(CC(/C=C/c3ccccc3O)=NN2c2cccc(S(=O)(=O)O)c2)N1c1nc2ccccc2s1` (configuration not stated), the GI50 is 22.5 µM (inactive) with MDA-MB-231; 14.8 µM (inactive) with KM12; 3.57 µM (inactive) in the test with NCI-H522; 15.2 µM (inactive) with UACC-62; 18.9 µM (inactive) in the test on NCI-H226; 23.9 µM (inactive) in the test with Hs-578T. Moreover, the GI50 with MDA-N is 18.6 µM (inactive); in the test with HCT-15 it was 18.2 µM; in the test on LOX IMVI, 9.62 µM (inactive); in the test on U-251, 16.7 µM (inactive); in the test with OVCAR-5, 22.3 µM (inactive); in the test with RPMI-8226, 12.1 µM (inactive). For the same compound, the GI50 with SF-539 is 16.9 µM (inactive); in the test with CCRF-CEM, 7.24 µM (inactive); with MOLT-4, 17.1 µM (inactive); in the test on EKVX it was 18.6 µM (inactive).
Take `COc1ccc(-c2nc(N(C)C)c3ccccc3n2)cc1`: the GI50 is 28.4 µM (inactive) in the test on MDA-MB-231; 13.4 µM (inactive) in the test with KM12; 14 µM (inactive) in the test with CAKI-1; 7.96 µM (inactive) in the test with NCI-H522; 12.7 µM (inactive) in the test on UACC-62; 3.31 µM (inactive) with NCI-H226. Also, the GI50 is 13.5 µM (inactive) with Hs-578T; 14.9 µM (inactive) with MDA-N; 12.1 µM in the test with HCT-15; 11 µM (inactive) in the test with LOX IMVI; 20.5 µM (inactive) in the test on U-251; 14 µM (inactive) with OVCAR-5. Besides, the GI50 is 5.56 µM (inactive) in the test with RPMI-8226, 20.4 µM (inactive) with SF-539, 3.91 µM (inactive) in the test with MOLT-4 and 3.66 µM (inactive) with EKVX.
As to `COC(=O)C(=O)C(C(=O)C(=O)Nc1ccccc1OC)c1nc2ccc([N+](=O)[O-])cc2nc1O` (configuration not stated), the GI50 in the test on MDA-MB-231 was > 100 µM (inactive); with KM12, 54.3 µM (inactive); in the test on CAKI-1, > 100 µM (inactive); in the test with OVCAR-3, > 100 µM (inactive); with NCI-H522 it was 65.2 µM (inactive); in the test with UACC-62, > 100 µM (inactive). Moreover, the GI50 is > 100 µM (inactive) with NCI-H226; 78.2 µM (inactive) with Hs-578T; 32.7 µM (inactive) with MDA-N; 41.4 µM in the test on HCT-15; 96.2 µM (inactive) in the test on LOX IMVI; > 100 µM (inactive) in the test with U-251. The GI50 with OVCAR-5 was > 100 µM (inactive); with RPMI-8226 it was > 100 µM (inactive); with SF-539, > 100 µM (inactive); with CCRF-CEM, > 100 µM (inactive); in the test on MOLT-4, > 100 µM (inactive); in the test on EKVX, 45.5 µM (inactive).
On to `Cc1ccc(S(=O)(=O)Nn2c(O)c(C#N)c(-c3ccc(Cl)cc3)c(C#N)c2=O)cc1`, for which the GI50 with MDA-MB-231, in the test with KM12, in the test on CAKI-1, in the test with NCI-H522, in the test on UACC-62 and in the test on NCI-H226 was > 100 µM (inactive) each time. Moreover, the GI50 in the test on Hs-578T was 74.3 µM (inactive); with MDA-N it was > 100 µM (inactive); in the test on HCT-15, greater than 100 µM; in the test with LOX IMVI it was > 100 µM (inactive); in the test with U-251, > 100 µM (inactive); in the test on OVCAR-5, > 100 µM (inactive). Also, the GI50 in the test with RPMI-8226, in the test on SF-539, in the test on CCRF-CEM, in the test with MOLT-4 and in the test on EKVX was > 100 µM (inactive) each time.
